Where two headings read alike, the source gives them in different places.
Tests used:
Experiment in all cases: Kinase selectivity, P33-radiolabeled assay
Format in all cases: biochemical
Conditions in all cases: 10 μM ATP
MEK3 = molecular target: T1, MEK3 (Homo sapiens, UniProt P46734)
T1 construct: purchased Reaction Biology Corp
T1 sequence (P46734 1-347): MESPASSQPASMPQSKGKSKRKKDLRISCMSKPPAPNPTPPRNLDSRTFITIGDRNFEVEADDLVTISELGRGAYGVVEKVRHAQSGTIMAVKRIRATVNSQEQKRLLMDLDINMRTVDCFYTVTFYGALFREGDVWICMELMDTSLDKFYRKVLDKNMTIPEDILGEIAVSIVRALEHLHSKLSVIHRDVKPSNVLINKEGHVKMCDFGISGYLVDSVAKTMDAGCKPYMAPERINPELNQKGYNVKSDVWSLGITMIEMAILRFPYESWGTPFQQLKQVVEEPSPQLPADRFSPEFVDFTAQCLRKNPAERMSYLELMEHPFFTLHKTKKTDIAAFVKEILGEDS
Outline: (§1)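 Activity relative to DMSO controls (%) was measured for compound at 10 μM. Assays ran at 10 μM ATP, in duplicate.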

GRK3 = molecular target: T2, GRK3 (Homo sapiens, UniProt P35626)
T2 construct: purchased Reaction Biology Corp
T2 sequence (P35626 1-688): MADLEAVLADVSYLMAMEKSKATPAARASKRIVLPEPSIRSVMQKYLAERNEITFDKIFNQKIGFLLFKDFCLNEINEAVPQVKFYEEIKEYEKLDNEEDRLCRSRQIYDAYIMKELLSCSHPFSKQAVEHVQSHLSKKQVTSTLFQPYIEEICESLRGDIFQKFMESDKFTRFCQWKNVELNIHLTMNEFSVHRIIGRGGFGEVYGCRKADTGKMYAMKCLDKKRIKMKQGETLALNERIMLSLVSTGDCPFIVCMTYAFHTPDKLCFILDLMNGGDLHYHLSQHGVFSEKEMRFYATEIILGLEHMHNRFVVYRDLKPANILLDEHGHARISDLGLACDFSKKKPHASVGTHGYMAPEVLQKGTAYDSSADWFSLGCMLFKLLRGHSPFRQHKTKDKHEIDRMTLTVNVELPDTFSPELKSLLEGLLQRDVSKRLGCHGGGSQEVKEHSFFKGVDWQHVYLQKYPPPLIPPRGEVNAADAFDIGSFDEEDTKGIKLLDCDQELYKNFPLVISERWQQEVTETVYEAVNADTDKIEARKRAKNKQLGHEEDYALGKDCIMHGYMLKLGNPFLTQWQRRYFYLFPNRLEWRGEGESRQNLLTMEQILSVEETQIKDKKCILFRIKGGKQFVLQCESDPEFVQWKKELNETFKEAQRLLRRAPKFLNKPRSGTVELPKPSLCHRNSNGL
Outline: as §1

PKCzeta = molecular target: T3, PKCzeta (Homo sapiens, UniProt Q05513)
T3 construct: purchased Reaction Biology Corp
T3 sequence (Q05513 1-592): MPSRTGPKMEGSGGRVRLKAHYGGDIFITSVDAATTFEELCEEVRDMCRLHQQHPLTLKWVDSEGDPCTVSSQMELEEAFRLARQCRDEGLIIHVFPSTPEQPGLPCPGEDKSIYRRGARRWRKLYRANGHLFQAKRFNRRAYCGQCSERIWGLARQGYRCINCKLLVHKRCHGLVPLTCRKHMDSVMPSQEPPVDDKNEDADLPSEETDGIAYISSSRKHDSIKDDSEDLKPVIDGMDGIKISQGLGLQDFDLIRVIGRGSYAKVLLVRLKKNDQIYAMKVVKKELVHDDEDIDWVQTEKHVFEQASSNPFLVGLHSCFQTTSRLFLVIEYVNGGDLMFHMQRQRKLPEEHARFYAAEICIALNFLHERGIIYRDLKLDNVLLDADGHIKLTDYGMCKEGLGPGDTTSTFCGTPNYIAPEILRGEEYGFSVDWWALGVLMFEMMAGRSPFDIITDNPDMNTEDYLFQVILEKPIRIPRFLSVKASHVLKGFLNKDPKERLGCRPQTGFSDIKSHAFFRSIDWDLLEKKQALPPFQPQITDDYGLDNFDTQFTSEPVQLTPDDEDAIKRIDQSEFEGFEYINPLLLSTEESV
Outline: as §1

NEK11 = molecular target: T4, NEK11 (Homo sapiens, UniProt Q8NG66)
T4 construct: purchased Reaction Biology Corp
T4 sequence (Q8NG66 1-645): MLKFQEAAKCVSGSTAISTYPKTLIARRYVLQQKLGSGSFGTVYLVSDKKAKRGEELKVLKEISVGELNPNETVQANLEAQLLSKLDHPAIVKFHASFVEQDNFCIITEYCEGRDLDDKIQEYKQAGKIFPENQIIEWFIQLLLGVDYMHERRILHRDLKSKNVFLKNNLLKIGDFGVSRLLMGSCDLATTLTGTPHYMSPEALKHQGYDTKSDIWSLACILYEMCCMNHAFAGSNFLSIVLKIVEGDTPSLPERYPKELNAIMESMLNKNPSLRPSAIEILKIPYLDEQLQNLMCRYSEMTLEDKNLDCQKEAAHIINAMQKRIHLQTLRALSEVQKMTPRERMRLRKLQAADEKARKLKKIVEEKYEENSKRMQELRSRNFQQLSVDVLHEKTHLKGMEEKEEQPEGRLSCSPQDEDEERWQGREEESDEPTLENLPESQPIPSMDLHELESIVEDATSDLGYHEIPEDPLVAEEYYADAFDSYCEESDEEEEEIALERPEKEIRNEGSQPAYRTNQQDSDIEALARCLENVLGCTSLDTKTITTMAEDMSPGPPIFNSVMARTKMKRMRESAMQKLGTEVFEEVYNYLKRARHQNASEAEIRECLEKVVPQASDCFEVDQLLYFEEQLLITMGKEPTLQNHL
Outline: as §1

DDR1 = molecular target: T5, DDR1 (Homo sapiens, UniProt Q08345)
T5 construct: purchased Reaction Biology Corp
T5 sequence (Q08345 19-913): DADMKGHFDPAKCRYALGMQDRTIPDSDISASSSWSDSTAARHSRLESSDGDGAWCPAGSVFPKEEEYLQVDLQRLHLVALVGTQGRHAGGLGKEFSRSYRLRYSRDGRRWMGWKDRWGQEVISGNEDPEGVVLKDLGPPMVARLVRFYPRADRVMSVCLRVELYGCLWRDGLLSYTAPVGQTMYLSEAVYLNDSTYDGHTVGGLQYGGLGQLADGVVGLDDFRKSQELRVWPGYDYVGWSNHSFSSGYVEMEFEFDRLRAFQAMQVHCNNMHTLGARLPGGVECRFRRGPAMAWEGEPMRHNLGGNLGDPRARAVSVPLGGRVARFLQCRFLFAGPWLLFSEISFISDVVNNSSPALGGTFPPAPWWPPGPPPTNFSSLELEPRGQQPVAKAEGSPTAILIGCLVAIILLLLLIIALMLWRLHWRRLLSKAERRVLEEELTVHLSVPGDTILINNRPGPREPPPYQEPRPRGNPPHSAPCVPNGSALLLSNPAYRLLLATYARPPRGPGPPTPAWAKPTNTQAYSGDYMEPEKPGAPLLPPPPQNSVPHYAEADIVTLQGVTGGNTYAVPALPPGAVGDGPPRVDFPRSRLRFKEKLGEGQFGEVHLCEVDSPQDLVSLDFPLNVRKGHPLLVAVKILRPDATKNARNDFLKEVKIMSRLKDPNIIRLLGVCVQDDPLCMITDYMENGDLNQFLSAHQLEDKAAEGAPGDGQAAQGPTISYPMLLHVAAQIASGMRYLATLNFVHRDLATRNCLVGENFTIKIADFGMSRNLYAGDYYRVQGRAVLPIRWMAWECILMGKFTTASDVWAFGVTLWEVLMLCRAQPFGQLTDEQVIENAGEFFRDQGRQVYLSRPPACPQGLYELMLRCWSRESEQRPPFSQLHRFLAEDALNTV
Outline: as §1

LYN B = molecular target: T6, LYN B (Homo sapiens, UniProt P07948)
T6 construct: purchased Reaction Biology Corp
T6 sequence (P07948 1-491 isoform P07948-2): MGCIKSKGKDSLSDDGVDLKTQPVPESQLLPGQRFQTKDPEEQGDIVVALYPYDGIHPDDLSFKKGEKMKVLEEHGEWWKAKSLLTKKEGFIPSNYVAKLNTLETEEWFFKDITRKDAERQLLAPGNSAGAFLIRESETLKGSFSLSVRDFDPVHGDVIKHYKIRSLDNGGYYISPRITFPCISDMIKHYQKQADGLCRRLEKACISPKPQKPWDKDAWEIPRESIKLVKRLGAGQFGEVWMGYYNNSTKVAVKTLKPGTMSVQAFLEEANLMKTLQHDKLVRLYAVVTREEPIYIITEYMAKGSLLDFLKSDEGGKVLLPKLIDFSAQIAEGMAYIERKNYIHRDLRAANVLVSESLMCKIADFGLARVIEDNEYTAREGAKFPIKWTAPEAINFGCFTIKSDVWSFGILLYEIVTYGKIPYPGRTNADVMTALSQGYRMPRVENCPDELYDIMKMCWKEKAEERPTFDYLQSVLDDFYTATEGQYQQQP
Outline: as §1

[1] = read-out: % Enzyme Activity (relative to DMSO controls) AVG
[2] = read-out: % Enzyme Activity (relative to DMSO controls) Data 1
[3] = read-out: % Enzyme Activity (relative to DMSO controls) Data 2

Work on `CC(C)(C)C(=O)N1N=CC[C@H]1c1ccccc1` [GSK′963] yielded a remaining activity at 10 µM (MEK3; [1]) of 108%, a remaining activity at 10 µM (MEK3; [2]) of 103% and a remaining activity at 10 µM (MEK3; [3]) of 113%. For the same compound, the remaining activity at 10 µM (GRK3; [1]) was 97.9%, the remaining activity at 10 µM (GRK3; [2]) was 98.1% and the remaining activity at 10 µM (GRK3; [3]) was 97.6%. It also gave a remaining activity at 10 µM (PKCzeta; [1]) of 105%, a remaining activity at 10 µM (PKCzeta; [2]) of 105% and a remaining activity at 10 µM (PKCzeta; [3]) of 105%. It also gave a remaining activity at 10 µM (NEK11; [1]) of 79.1%, a remaining activity at 10 µM (NEK11; [2]) of 77.3% and a remaining activity at 10 µM (NEK11; [3]) of 80.9%. For the same compound, the remaining activity at 10 µM (DDR1; [1]) was 96%, the remaining activity at 10 µM (DDR1; [2]) was 94% and the remaining activity at 10 µM (DDR1; [3]) was 97.9%. The remaining activity at 10 µM (LYN B; [1]) was 99.7%, the remaining activity at 10 µM (LYN B; [2]) was 103% and the remaining activity at 10 µM (LYN B; [3]) was 96%.

— paper PMC4979471 (Cell Death Discovery, 2015)
